From US20210252008A1, “BIARYL COMPOSITIONS AND METHODS FOR MODULATING A KINASE CASCADE” (Athenex, Inc., priority 2004, published 2021) come the findings set out here.

The term GI50 denotes the concentration that inhibits growth by half. Low readings indicate greater sensitivity of the cells, high ones lower sensitivity of the cells.

Assay [1] has as its system c-Src 3T3 cells (NIH 3T3 transfected with human c-Src 527F). The assay can be described thus: BrdU cell growth inhibition, c-Src 3T3. In kind it is cell-based, mouse. The procedure:
(§1) The GI50s for several of the compounds of the invention were assayed as described herein.
The c-Src 3T3 is a mouse fibroblast NIH 3T3 normal cell line that has been transfected with a point-mutant of human c-Src wherein tyrosine 527 has been converted to a phenylalanine. This mutation results in “constitutively active” c-Src because phosphorylation on tyrosine 527 results in auto-inhibition of Src by having it fold back on its own SH2 domain. With a Phe there, this phosphorylation can't occur and therefore auto-inhibition can't occur. Thus, the always fully active mutant Src then converts the normal mouse fibroblasts into rapidly growing tumor cells. Since the hyperactive Src is the main factor driving growth in these cells (particularly when cultured under low growth serum conditions), compounds active in blocking this growth are thought to work by blocking Src signaling (e.g. as a direct Src kinase inhibitor or as an inhibitor acting somewhere else in the Src signaling cascade). The cells were routinely cultured in DMEM supplemented with Fetal Bovine Serum (2.0% v/V), L-glutamine (2 mM) and Sodium Pyruvate (1 mM).
(§2) In the BrdU Assay for cell growth inhibition, quantitation of cell proliferation was based on the measurement of BrdU incorporation during DNA synthesis. The Cell Proliferation ELISA BrdU assay kit (colorimetric) was obtained from Roche Applied Science and performed as per vendor instructions.
(§3) The growth inhibition (GI) is determined from the formula GI=(T0-Tn×100/T0−CONn) where T0 is the BrdU growth of untreated cells at time “0”, Tn is the BrdU growth of treated cells at day “n” and CONn is the control BrdU growth of control cells at day “n”. The GI50 was extrapolated and the data plotted using XL-Fit 4.0 software.
(§4) For 96 well culture plate experiments, c-Src 3T3 medium was supplemented with 10 mM HEPES buffer. HT-29 cells were seeded in standard tissue culture 96-well plates and c-Src 3T3 cells were seeded in 96-well plates coated with Poly-D-lysine (BIOCOAT™). To increase CO2 diffusion, c-Src 3T3 96-well plates were incubated with their lids raised by 2 mm using sterile rubber caps.
Seeded 96 well plates were allowed to attach overnight for 18-24 hours, either at 37° C. and 5% CO2 for HT-29 or at 37° C. and 10% CO2 for c-Src 3T3. Approx 18-24 hours after seeding, the initial growth of cells (To) was determined for untreated cells using the BrdU assay. Samples were reconstituted in DMSO at 20 mM and intermediate dilutions made using DMEM containing 10% FBS. The final assay concentrations were 1.5% for FBS and 0.05% for DMSO. Samples were added as 10 μL aliquots in triplicate and plates were incubated as above for 72 hours. […] Plates were assayed for BrdU and the data analyzed as above for GI50. […]

The subject of assay [2] is HT29 cell line (NCI standard human colon carcinoma cell line). Put plainly: BrdU cell growth inhibition, HT-29. Type of assay: cell-based. The conditions noted are these: HT29 cells. The procedure: as §1
The HT29 cell line is a NCI standard human colon carcinoma cell line. […] HT29 cells were routinely cultured in McCoy's 5A medium supplemented with Fetal Bovine Serum (1.5% v/v) and L-glutamine (2 mM).
as §2, §3, §4
Seeded 96 well plates were allowed to attach overnight for 18-24 hours, either at 37° C. and 5% CO2 for HT-29 or at 37° C. and 10% CO2 for c-Src 3T3. Approx 18-24 hours after seeding, the initial growth of cells (To) was determined for untreated cells using the BrdU assay. Samples were reconstituted in DMSO at 20 mM and intermediate dilutions made using DMEM containing 10% FBS. The final assay concentrations were 1.5% for FBS and 0.05% for DMSO. Samples were added as 10 μL aliquots in triplicate and plates were incubated as above for 72 hours. Negative (vehicle) and positive controls (e.g., AZ (KX-328)) were included. Plates were assayed for BrdU and the data analyzed as above for GI50. […]

Assay [3] deals with osteoclast precursors derived from spleen cells. Put plainly: Effect on osteoclast formation. The note with it: 5 days, RANKL and M-CSF. In kind it is cell-based. The procedure:
To determine the effect of the compounds on osteoclast formation, the compounds were added to osteoclast precursors derived from spleen cells. For the generation of spleen-derived osteoclasts, spleen cells comprising osteoclast precursors were treated with Rapamycin, KX1-141, KX2-328 (Astrazeneca compound), or KX1-329 for 5 days in the presence of receptor activator of nuclear factor-KB ligand (RANKL) and macrophage colony-stimulating factor (M-CSF). In in vitro murine or human osteoclast models, soluble RANKL enables osteoclast precursors to differentiate in the presence of M-CSF (Quinn, et al.; 1998, Endocrinology, 139, 4424-4427; Jimi, et al.; 1999, J. Immunol., 163, 434-442). The untreated control cells were incubated in the presence of RANKL and M-CSF alone. Rapamycin was used as a positive control for the inhibition of osteoclast formation.
For generating spleen-derived osteoclasts, spleen cells were treated as described above. […] Cells were then stained with the osteoclast marker, tartrate-resistant acid phosphatase (TRAP) to visualize differentiated cells. The numbers of TRAP-positive osteoclasts were counted.

The subject of assay [4] is Chinchillas, noise-induced hearing loss. Put plainly: Protection against noise-induced hearing loss. Type of assay: in vivo. The note with it: chinchilla; round window application; 4 kHz band noise 105 dB SPL four hours; day 1, 7, 21; in most cases. The procedure: Chinchillas (N=6) were used in studies of noise-induced hearing loss. The animals' hearing sensitivity was measured using standard electrophysical techniques before the experimental manipulation. […] Animals were anesthetized, the auditory bullae were opened, and the left and right cochleas were visualized. The round window leading to the scala tympani of the cochlea was used as the access point for drug application. Animals were treated with KX1-004, KX1-141, KX1-329 or KX2-328 (a non-ATP competitive inhibitor from Astrazeneca), emulsified in DMSO, in […] of saline solution, which was placed on the round window of one ear. A control solution of 3 mM DMSO in […] of saline solution was placed on the round window of the other ear. The solution was allowed to set on the round window for 30 minutes, then the auditory bullae were closed. […] Following the noise exposure, the animals' hearing was tested at day 1, day 7, and day 21 to determine evoked potential threshold shifts. Permanent threshold shift was assessed at day 21.
FIGS. 10-12 show the average threshold shifts for animals treated with KX1-004, KX1-141, KX1-329 or KX2-328.

Assay [5] relates to osteoclasts on bone slices. Put plainly: Effect on bone resorption in vitro (bone slices). In kind it is cell-based. The procedure: To determine the effects of the compounds on osteoclast formation on bone slices, the bone slices were treated with Rapamycin, KX1-141, KX2-328, or KX1-329. […] The number of osteoclasts on the bone slices were counted.
During the resorption of bone, osteoclasts form resorption pits. To determine the effects of the compounds on resorption pit formation on bone slices, the bone slices were treated with Rapamycin, KX1-141, KX2-328, or KX1-329, as described above. […] The number of resorption pits on the bone slices was determined.
Bone slices were treated as indicated above. […] The bone slices were then stained with TRAP.
Bone slices were treated as indicated above. […] The bone slices were stained with Toluidine Blue to reveal resorption pits, which are indicators of osteoclast-mediated resorption of bone.

The next assay has as its system osteoclasts. Put plainly: Effect on osteoclast survival. Type of assay: cell-based. The conditions noted are these: 48 hours, RANKL and M-CSF. The procedure: To determine the effect of the compounds on osteoclast survival, osteoclasts were treated with Rapamycin, KX1-141, KX2-328, or KX1-329 for 48 hours in the presence of RANKL and M-CSF. The untreated, control cells were incubated in the presence of RANKL and M-CSF alone. Rapamycin was used as a positive control for the inhibition of osteoclast survival.
As described above, osteoclasts were treated with Rapamycin, KX1-141, KX2-328, or KX1-329 for 48 hours in the presence of RANKL and M-CSF. […] Cells were then stained with TRAP and the number of TRAP-positive osteoclasts were counted.

Assay [6] has as its system Guinea pigs, cisplatin-induced hearing loss. The assay can be described thus: Protection against cisplatin-induced hearing loss. Type of assay: in vivo. The conditions noted are these: guinea pig; subcutaneous, prior to cisplatin; FIG. 15. The procedure: The effects of high level noise and ototoxic drugs, such as cisplatin or the class of aminoglycosides, share several common features in the inner ear. First, the noise and/or drugs alter the free radi cal/anti oxidant levels in the cochlea (inner ear). […] Guinea pigs (N=7) were used in studies of cisplatin-induced hearing loss. The animals' hearing sensitivity was measured using standard electrophysical techniques before the experimental manipulation. […] Animals were anesthetized and treated with cisplatin. Subsequently, the animals' hearing was tested to determine evoked potential threshold shifts.
Animals were treated subcutaneously with KX1-004 prior to the cisplatin-induced hearing loss.

With `O=C(Cc1ccc(-c2ccccc2)c[n+]1[O-])NCc1cccc(F)c1` [KX1-329 N-oxide], in assay [1], the “GI50 (c-Src 3T3)” value is “inactive (c-Src 3T3);”. The “GI50 (HT29)” value in assay [2] is “inactive (HT-29)”.
As for `O=C(Cc1ccc(-c2ccccc2)cn1)NCc1cccc(F)c1` [KX1-329], in assay [3] (FIG. 17), the “number of TRAP-positive osteoclasts vs untreated control (formation)” value was “reduced the number of TRAP-positive osteoclasts”. Besides, in assay [3] (stained, FIG. 16), the “formation of osteoclasts vs untreated control” value is listed as “inhibited the formation of osteoclasts”. Besides, the “average dB threshold shifts of treated ears vs control” value in assay [4] was “lower”. The “number of osteoclasts on the bone slices vs untreated control” value in assay [5] (FIG. 20A) is recorded as “reduced the number of osteoclasts on the bone slices”. The “number of resorption pits on the bone slices vs untreated control” value is “reduced the number of resorption pits” in assay [5] (FIG. 20B) and “reduced the number of resorption pits” in assay [5] (Toluidine Blue stain, FIG. 21B). Besides, in assay [5] (TRAP stain, FIG. 21A), the “number of TRAP-positive osteoclasts on the bone slices vs untreated control” value is “reduced the number of TRAP-positive osteoclasts”. Also, in the assay on osteoclasts (FIG. 18), the “survival of osteoclasts vs untreated control” value was “inhibited the survival of osteoclasts”. Also, the “number of TRAP-positive osteoclasts vs untreated control (survival)” value in the assay with osteoclasts (FIG. 19) is given as “reduced the number of TRAP-positive osteoclasts”.
The molecule `CN1CCN(Cc2ccc(-c3ccc(CC(=O)NCc4cccc(F)c4)nc3)cc2)CC1` [KX2-376] returned a GI50 in assay [1] (NIH3T3) greater than 0.016 µM.
Take `CCOc1ccc(-c2ccc(CC(=O)NCc3cccc(F)c3)nc2)c(OCCN2CCN(C)CC2)c1` [KX2-384]: the “GI50 (HT29)” value in assay [2] was “inactive (HT-29)”.
On the same count and under the same terms, with `CC(C)COc1cc(F)cc(CNC(=O)Cc2ccc(-c3ccc(OCCN4CCCCC4)cc3)cn2)c1` [KX2-386] the entry was “inactive (HT-29)”.
As for `CC(C)COc1cc(F)cc(CNC(=O)Cc2ccc(-c3ccc(OCCN4CCOCC4)cc3)cn2)c1` [KX2-387], the “GI50 (c-Src 3T3)” value in assay [1] is “inactive (c-Src 3T3);”.
On the same count and under the same terms, with `CCOc1ccc(-c2ccc(CC(=O)NCc3cccc(F)c3)nc2)c(OCCN2CCCCC2)c1` [KX2-389] the entry was “Inactive (c-Src 3T3);”.
Regarding KX1-004, the “average dB threshold shifts of treated ears vs control” value in assay [4] was “lower”. The “protection against cisplatin-induced hearing loss (median CAP thresholds)” value in assay [6] is given as “protected against cisplatin-induced hearing loss”.
